In patent US20240018158A1, “BRM TARGETING COMPOUNDS AND ASSOCIATED METHODS OF USE” (Prelude Therapeutics Incorporated, priority 2020, published 2024):

Key:
SMARCA2 [1] = molecular target: T1, SMARCA2 (Homo sapiens (Human), UniProt P51531); assay: In Cell Western SMARCA2 degradation in NCIH520 cells; format: cell-based; conditions: for DC50: H520 cells, overnight, read-out: DC50 (SM2_H520) SMARCA2 degradation potency; for Dmax: NCI-H520, overnight, read-out: Dmax % (SM2_H520) maximum SMARCA2 degradation within the concentrations tested
T1 sequence (P51531 whole entry): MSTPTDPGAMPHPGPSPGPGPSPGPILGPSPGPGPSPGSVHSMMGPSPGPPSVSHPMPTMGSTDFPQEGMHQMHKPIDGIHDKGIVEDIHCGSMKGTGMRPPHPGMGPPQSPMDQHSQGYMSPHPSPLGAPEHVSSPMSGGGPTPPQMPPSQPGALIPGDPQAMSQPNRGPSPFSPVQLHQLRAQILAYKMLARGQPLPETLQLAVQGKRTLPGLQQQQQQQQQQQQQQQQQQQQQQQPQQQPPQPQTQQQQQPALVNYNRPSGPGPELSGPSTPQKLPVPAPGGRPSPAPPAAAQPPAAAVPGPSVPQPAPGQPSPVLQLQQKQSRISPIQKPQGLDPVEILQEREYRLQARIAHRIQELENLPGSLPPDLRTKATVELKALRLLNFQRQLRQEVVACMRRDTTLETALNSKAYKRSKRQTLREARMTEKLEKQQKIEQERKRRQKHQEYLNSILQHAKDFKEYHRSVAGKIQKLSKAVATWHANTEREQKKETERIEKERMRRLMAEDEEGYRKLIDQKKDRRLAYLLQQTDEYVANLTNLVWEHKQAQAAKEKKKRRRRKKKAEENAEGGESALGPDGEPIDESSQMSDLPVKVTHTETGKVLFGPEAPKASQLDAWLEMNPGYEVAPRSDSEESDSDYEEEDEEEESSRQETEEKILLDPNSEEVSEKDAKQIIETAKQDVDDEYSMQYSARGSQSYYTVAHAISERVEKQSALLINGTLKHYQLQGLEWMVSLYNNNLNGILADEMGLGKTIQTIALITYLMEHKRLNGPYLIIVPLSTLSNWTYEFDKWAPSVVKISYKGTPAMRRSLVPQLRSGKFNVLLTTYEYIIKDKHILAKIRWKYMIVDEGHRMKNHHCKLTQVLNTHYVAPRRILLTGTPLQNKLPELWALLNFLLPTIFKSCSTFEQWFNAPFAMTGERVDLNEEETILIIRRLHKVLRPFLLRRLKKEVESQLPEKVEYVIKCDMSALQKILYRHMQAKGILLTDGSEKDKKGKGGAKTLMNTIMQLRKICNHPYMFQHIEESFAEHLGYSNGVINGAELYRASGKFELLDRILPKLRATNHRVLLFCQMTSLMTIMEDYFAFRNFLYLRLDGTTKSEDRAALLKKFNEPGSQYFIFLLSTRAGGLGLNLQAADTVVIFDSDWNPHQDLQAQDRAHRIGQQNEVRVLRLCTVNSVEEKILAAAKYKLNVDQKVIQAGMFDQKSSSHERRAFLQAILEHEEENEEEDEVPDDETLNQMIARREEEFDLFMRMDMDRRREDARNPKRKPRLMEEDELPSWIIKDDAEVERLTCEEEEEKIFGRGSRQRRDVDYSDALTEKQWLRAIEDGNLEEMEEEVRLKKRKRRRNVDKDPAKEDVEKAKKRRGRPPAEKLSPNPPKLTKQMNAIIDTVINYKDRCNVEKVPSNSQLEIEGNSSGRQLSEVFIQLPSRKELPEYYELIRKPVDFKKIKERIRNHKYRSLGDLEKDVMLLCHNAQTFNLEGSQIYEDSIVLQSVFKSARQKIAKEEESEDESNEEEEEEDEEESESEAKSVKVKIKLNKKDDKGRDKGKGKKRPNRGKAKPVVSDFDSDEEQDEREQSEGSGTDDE
Procedure: (§1) Compound titration and cell culture: Compounds were dissolved in DMSO to make 10 mM stock and 3-fold series dilutions were further conducted keeping the highest concentration 10 μM. NCIH1693 and NCIH520 cells were maintained in PRMI 1640 medium (Corning Cellgro, Catalog #:10-040-CV) supplemented with 10% v/v FBS (GE Healthcare, Catalog #: SH30910.03) by splitting 1:3 twice a week.
(§2) To determine SMACRA2 and SMARCA4 protein degradation DC50 values in NCIH1693 and NCIH520 cells by In Cell Western (ICW) analysis. Cells were trypsinized and 30 thousand cells/well were seeded into 384-well plates and were allowed to grow for 5 hours at 37° C. Eight-point, 3-fold serial dilutions of compounds from 10 mM stocks were added to the cells (using digital Dispenser D300-Tecan, keeping highest concentration 10 μM and normalizing with DMSO at the highest dispensed volume). Plates were incubated at 37° C. for overnight (maximum 18 hours). Cells incubated with DMSO was used as a vehicle control.
(§3) To perform In Cell Western, medium was removed from all the wells leaving cells attached to the surface. After removing the medium, cells were fixed within the plates with 40 μL of 4% formaldehyde by incubating at room temperature for 30 minutes, and then permeabilized with wash buffer (1×PBS with 0.1% Triton X-100) by washing the plate 5 times with 50 μL/well. Before labeling with primary antibodies, cells were blocked with 30 μL/well of blocking buffer (Licor Odyssey blocking buffer PBS #927-40000) for 30 minutes at room temperature. To measure SMARCA2 or SMARCA4 proteins, cells were labeled with 20 μL/well of anti SMARCA2 or SMACRA4 antibodies (Cell Signaling BRM #11966S 1:1000, Cell Signaling BRG #49360S 1:1000) diluted in Li-Cor Odyssey blocking buffer-PBS #927-40000, followed by overnight incubation at 4° C.
(§4) The next day, plates were washed 5×5 minutes with 50 μL/well of washing buffer to remove all the excess primary antibody and then 20 μL from a mixture of secondary antibody and fluorescent DNA specific dye (Goat anti rabbit 1:500 IRDye-800CW #92632211, and DRAQ5™ 1:2000-#ab108410) was added to each well. Plates were incubated for 1 hour at room temperature with gentle rocking. Cells were washed 5 times with 50 μL/well wash buffer, followed by one last wash with DI water, followed by 10 mins drying at 37° C. oven before scanning. Plates were scanned using Li-Cor Odyssey CLx imaging system to acquire integrated intensities at 700 nm and 800 nm. SMARCA signals were normalized to total cell count and then these normalized values were used to calculate the percent degradation relative to DMSO control and maximum inhibition. DC50s were calculated by using the GraphPad Prism4 program based on sigmoidal dose response equation ([Inhibitor] vs. normalized response−Variable slope).

[2] = molecular target: bromodomain of SMARCA2 protein (Homo sapiens (Human), UniProt P40337+P51531); assay: SMARCA2 bromodomain ternary binding TR-FRET assay (with VCB); conditions: with saturating VCB (5 μM); read-out: IC50 (SM 2_T) ternary binding potency in SMARCA2 FRET assay
Sequence of bromodomain of SMARCA2 protein (P51531 whole entry, looked up): as the sequence (P51531 whole entry) above
Sequence of bromodomain of SMARCA2 protein (P40337 whole entry, looked up): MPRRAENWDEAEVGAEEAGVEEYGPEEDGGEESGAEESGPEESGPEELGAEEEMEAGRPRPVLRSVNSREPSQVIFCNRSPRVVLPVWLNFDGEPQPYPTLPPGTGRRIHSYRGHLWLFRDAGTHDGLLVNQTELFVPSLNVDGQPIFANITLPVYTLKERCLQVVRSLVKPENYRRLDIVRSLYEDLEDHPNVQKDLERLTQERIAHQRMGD
Sequence of bromodomain of SMARCA2 protein (Q15370 whole entry partner, looked up): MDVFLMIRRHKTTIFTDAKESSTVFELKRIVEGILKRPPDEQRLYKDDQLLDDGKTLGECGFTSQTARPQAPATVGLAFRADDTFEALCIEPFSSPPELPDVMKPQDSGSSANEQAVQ
Sequence of bromodomain of SMARCA2 protein (Q15369 whole entry partner, looked up): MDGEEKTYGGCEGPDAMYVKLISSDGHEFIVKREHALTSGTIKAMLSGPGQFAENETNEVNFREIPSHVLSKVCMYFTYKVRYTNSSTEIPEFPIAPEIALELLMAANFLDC
Description: Recombinant bromodomain of SMARCA2 protein was purchased from Active Motif (Catalog #: 31449). VHL/ElonginB/ElonginC (VCB)N-terminal his6-tagged VHL (“his6” disclosed as SEQ ID NO: 4) (uniprot accession number P40337; M54-D213; […] […] […] (SEQ ID NO: 1)), Elongin B (Q15370; M1-K104; […] […] (SEQ ID NO: 2)), Elongin C (Q15369; M17-C112; […] […] (SEQ ID NO: 3)) complex were co-expressed and the complex was purified by Ni-affinity, TEV protease was then used to remove his6-tagged (SEQ ID NO: 4), and the complex was further purified by size-exclusion chromatography before use.
The inhibitory activity of compounds was evaluated in vitro using TR-FRET assay with white 384-well low volume microplate (PerkinElmer ProxiPlate Plus), in which the compound competes the same binding site with the ligand, and thus lead to dose-dependent TR-FRET signal reduction. The cooperativity of the compounds for ternary complex formation with E3 ligase was evaluated in the absence or presence of saturating concentrations of VCB. Testing compounds were dissolved in DMSO at […] and tested in 9-dose IC50. The assay mixture was prepared by mixing SMARCA2 (10 nM final), biotinylated probe (25 nM final), and assay buffer or VCB (5 μM) in 1×AlphaLISA Epigenetics Buffer (PerkinElmer AL008F) with 1 mM TCEP. The compounds in DMSO were added to each well in 3-fold serial dilution by dispenser (TECAN D300E) and incubate for 20 minutes at room temperature before addition of detection reagents, Lance Eu W1024 anti-6×His (0.6 nM final, PerkinElmer AD0110) and Streptavidin Surelight APC (6 nM final, PerkinElmer CR130-100). The plate was then sealed and further incubated at 4° C. overnight in dark, and then was read by Envision multimode plate reader (PerkinElmer, 2102-0010). The ratio of florescence signal at 665/620 was used in data analysis. Percentage inhibition was calculated by % inhibition=100×(FDMSO-F)/(FDMSO-FPC), in which FDMSO is DMSO control, and FPC is positive control. IC50 values were determined from dose response curve by fitting the percent inhibition against compound concentration using GraphPad Prism software.

SMARCA4 [3] = molecular target: T2, SMARCA4 (Homo sapiens (Human), UniProt P51532); assay: In Cell Western SMARCA4 degradation in NCIH520 cells; format: cell-based; conditions: for DC50: H520 cells, overnight, read-out: DC50 (SM4_H520) SMARCA4 degradation potency; for Dmax: NCI-H520, overnight, read-out: Dmax % (SM4_H520) maximum SMARCA4 degradation within the concentrations tested
T2 sequence (P51532 whole entry): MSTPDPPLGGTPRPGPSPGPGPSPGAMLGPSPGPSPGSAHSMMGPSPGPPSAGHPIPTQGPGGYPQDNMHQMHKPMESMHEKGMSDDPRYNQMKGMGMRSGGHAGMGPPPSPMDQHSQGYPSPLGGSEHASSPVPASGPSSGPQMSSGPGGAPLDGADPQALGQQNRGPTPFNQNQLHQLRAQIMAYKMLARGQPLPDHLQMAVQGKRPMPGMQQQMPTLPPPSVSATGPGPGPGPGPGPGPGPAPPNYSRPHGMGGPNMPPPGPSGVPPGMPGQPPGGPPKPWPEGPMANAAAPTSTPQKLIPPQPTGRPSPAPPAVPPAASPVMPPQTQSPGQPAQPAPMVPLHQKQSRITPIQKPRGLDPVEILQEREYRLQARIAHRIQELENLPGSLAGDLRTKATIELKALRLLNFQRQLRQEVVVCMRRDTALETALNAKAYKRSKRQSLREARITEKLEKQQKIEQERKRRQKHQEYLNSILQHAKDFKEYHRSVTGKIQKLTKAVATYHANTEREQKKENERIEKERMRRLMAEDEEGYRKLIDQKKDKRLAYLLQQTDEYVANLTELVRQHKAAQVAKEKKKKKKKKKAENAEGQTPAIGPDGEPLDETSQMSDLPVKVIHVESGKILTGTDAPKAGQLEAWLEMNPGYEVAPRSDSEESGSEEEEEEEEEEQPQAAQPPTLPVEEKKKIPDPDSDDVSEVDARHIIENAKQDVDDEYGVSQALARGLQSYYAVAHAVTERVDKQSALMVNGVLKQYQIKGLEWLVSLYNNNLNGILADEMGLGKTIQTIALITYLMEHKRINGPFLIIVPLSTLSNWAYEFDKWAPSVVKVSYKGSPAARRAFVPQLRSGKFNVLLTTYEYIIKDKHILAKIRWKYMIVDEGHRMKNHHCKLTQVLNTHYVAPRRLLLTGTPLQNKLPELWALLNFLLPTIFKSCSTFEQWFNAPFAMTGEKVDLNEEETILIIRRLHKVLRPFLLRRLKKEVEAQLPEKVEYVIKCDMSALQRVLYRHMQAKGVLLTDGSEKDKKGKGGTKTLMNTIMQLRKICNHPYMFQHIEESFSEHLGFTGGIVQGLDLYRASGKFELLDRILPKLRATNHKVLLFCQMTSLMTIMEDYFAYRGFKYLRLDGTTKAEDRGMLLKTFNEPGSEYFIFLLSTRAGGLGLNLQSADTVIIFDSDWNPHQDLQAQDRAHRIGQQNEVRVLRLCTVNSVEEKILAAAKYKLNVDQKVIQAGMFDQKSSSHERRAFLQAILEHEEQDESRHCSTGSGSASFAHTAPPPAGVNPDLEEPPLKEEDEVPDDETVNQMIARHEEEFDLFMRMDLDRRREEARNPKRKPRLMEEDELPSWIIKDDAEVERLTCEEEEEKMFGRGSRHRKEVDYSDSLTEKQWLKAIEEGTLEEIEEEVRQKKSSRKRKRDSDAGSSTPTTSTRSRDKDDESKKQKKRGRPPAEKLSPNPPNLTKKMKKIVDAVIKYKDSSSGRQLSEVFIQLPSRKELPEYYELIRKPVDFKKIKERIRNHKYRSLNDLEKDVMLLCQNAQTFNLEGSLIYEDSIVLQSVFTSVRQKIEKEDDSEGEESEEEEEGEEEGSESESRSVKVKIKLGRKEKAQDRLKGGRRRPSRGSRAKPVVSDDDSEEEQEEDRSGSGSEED
Procedure: as §1, §2, §3, §4

SMARCA2 [4] = molecular target: T1, SMARCA2; assay: SMARCA2 HiBiT degradation assay in HeLa cells; format: cell-based; conditions: 18 hours; for DC50: read-out: DC50 (SM2-HeLa) SMARCA2 degradation potency; for Dmax: read-out: Dmax % (SM2-HeLa) maximum SMARCA2 degradation within the concentrations tested
How it was run: (§5)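 HeLa monoclonal lines carrying a heterozygous HiBiT knock-in on SMARCA2 or SMARCA4 were seeded at 2500 cells/well in EMEM with 10% FBS. After 18 h compound exposure at 37 °C, Nano-Glo HiBiT lytic detection ran 30-60 min at RT before the luminescence read. Values are from curve fits.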

SMARCA4 [5] = molecular target: T2, SMARCA4; assay: SMARCA4 HiBiT degradation assay in HeLa cells; format: cell-based; conditions: 18 hours; for DC50: read-out: DC50 (SM4-HeLa) SMARCA4 degradation potency; for Dmax: HeLa, read-out: Dmax % (SM4-HeLa) maximum SMARCA4 degradation within the concentrations tested
How it was run: as §5

Cc1ncsc1-c1ccc([C@H](C)NC(=O)[C@@H]2C[C@@H](O)CN2C(=O)C(c2cc(OCCN3CCC(CN4CCN5c6cc(-c7ccccc7O)nnc6NCC5C4)CC3)no2)C(C)C)cc1 (stereo in doubt) [Example 5, (2S,4R)-4-hydroxy-1-((2S)-2-(3-(2-(4-((2-(2-hydroxyphenyl)-5,6,6a,7,9,10-hexahydro-8H-pyrazino[1′,2′:4,5]pyrazino[2,3-c]pyridazin-8-yl)methyl)piperidin-1-yl)ethoxy)isoxazol-5-yl)-3-methylbutanoyl)-N-((S)-1-(4-(4-methylthiazol-5-yl)phenyl)ethyl)pyrrolidine-2-carboxamide]
DC50 (SMARCA2 [1]): < 100 nM | Dmax (SMARCA2 [1]): > 75% | IC50 [2]: < 100 nM | DC50 (SMARCA4 [3]): < 100 nM | Dmax (SMARCA4 [3]): > 75%

Cc1ncsc1-c1ccc([C@H](C)NC(=O)[C@@H]2C[C@@H](O)CN2C(=O)[C@@H](NC(=O)CN2CCC(CN3CCN4c5cc(-c6ccccc6O)nnc5NCC4C3)CC2)C(C)(C)C)cc1 (stereo partly drawn) [Example 3, (2S,4R)-4-hydroxy-1-((2S)-2-(2-(4-((2-(2-hydroxyphenyl)-5,6,6a,7,9,10-hexahydro-8H-pyrazino[1′,2′:4,5]pyrazino[2,3-c]pyridazin-8-yl)methyl)piperidin-1-yl)acetamido)-3,3-dimethylbutanoyl)-N-((S)-1-(4-(4-methylthiazol-5-yl)phenyl)ethyl)pyrrolidine-2-carboxamide]
DC50 (SMARCA2 [1]): < 100 nM | Dmax (SMARCA2 [1]): > 75% | IC50 [2]: < 100 nM | DC50 (SMARCA4 [3]): 100 to 1000 nM | Dmax (SMARCA4 [3]): > 75%

Cc1ncsc1-c1ccc([C@H](C)NC(=O)[C@@H]2C[C@@H](O)CN2C(=O)[C@@H](c2cc(OCCN3CCC(N4CCN5c6cc(-c7ccccc7O)nnc6NC(C)C5C4)CC3)no2)C(C)C)cc1 (stereo partly drawn) [Example 96, (2S,4R)-4-hydroxy-1-((2R)-2-(3-(2-(4-(2-(2-hydroxyphenyl)-6-methyl-5,6,6a,7,9,10-hexahydro-8H-pyrazino[1′,2′:4,5]pyrazino[2,3-c]pyridazin-8-yl)piperidin-1-yl)ethoxy)isoxazol-5-yl)-3-methylbutanoyl)-N-((S)-1-(4-(4-methylthiazol-5-yl)phenyl)ethyl)pyrrolidine-2-carboxamide]
DC50 (SMARCA2 [4]): < 100 nM | Dmax (SMARCA2 [4]): > 75% | DC50 (SMARCA4 [5]): < 100 nM | Dmax (SMARCA4 [5]): > 75%

Cc1ncsc1-c1ccc([C@H](C)NC(=O)[C@@H]2C[C@@H](O)CN2C(=O)[C@@H](c2cc(O[C@@H](C)CN3CCC(N4CCN5c6cc(-c7ccccc7O)nnc6NCC5(C)C4)C3)no2)C(C)C)cc1 (stereo partly drawn) [Example 64, (2S,4R)-4-hydroxy-1-((2R)-2-(3-(((2S)-1-(3-(2-(2-hydroxyphenyl)-6a-methyl-5,6,6a,7,9,10-hexahydro-8H-pyrazino[1′,2′:4,5]pyrazino[2,3-c]pyridazin-8-yl)pyrrolidin-1-yl)propan-2-yl)oxy)isoxazol-5-yl)-3-methylbutanoyl)-N-((S)-1-(4-(4-methylthiazol-5-yl)phenyl)ethyl)pyrrolidine-2-carboxamide]
DC50 (SMARCA2 [4]): < 100 nM | Dmax (SMARCA2 [4]): > 75% | DC50 (SMARCA4 [5]): < 100 nM | Dmax (SMARCA4 [5]): > 75%

Cc1ncsc1-c1ccc([C@H](C)NC(=O)[C@@H]2C[C@@H](O)CN2C(=O)[C@@H](c2cc(OC(C)CN3CCCC(CN4CCN5c6cc(-c7ccccc7O)nnc6NC[C@H]5C4)CC3)no2)C(C)C)cc1 (stereo partly drawn) [Example 68, (2S,4R)-4-hydroxy-1-((2R)-2-(3-((1-(4-(((S)-2-(2-hydroxyphenyl)-5,6,6a,7,9,10-hexahydro-8H-pyrazino[1′,2′:4,5]pyrazino[2,3-c]pyridazin-8-yl)methyl)azepan-1-yl)propan-2-yl)oxy)isoxazol-5-yl)-3-methylbutanoyl)-N-((S)-1-(4-(4-methylthiazol-5-yl)phenyl)ethyl)pyrrolidine-2-carboxamide]
DC50 (SMARCA2 [4]): < 100 nM | Dmax (SMARCA2 [4]): > 75% | DC50 (SMARCA4 [5]): 100 to 1000 nM | Dmax (SMARCA4 [5]): > 75%

Cc1ncsc1-c1ccc([C@H](C)NC(=O)[C@@H]2C[C@@H](O)CN2C(=O)[C@@H](c2cc(O[C@@H](C)C(=O)N3CCC(N4CCN5c6cc(-c7ccccc7O)nnc6NC[C@H]5C4)CC3)no2)C(C)C)cc1 [Example 27, (2S,4R)-4-hydroxy-1-((R)-2-(3-(((S)-1-(4-((S)-2-(2-hydroxyphenyl)-5,6,6a,7,9,10-hexahydro-8H-pyrazino[1′,2′:4,5]pyrazino[2,3-c]pyridazin-8-yl)piperidin-1-yl)-1-oxopropan-2-yl)oxy)isoxazol-5-yl)-3-methylbutanoyl)N-((S)-1-(4-(4-methylthiazol-5-yl)phenyl)ethyl)pyrrolidine-2-carboxamide]
DC50 (SMARCA2 [4]): < 100 nM | Dmax (SMARCA2 [4]): > 75% | DC50 (SMARCA4 [5]): 100 to 1000 nM | Dmax (SMARCA4 [5]): 50 to 75%

Cc1ncsc1-c1ccc([C@H](C)NC(=O)[C@@H]2C[C@@H](O)CN2C(=O)C(c2cc(O[C@H](C)C(=O)N3CCC(N4CCN5c6cc(-c7ccccc7O)nnc6NC[C@H]5C4)C3)no2)C(C)C)cc1 (stereo partly drawn) [Example 29, (2S,4R)-4-hydroxy-1-(2-(3-(((2R)-1-(3-((S)-2-(2-hydroxyphenyl)-5,6,6a,7,9,10-hexahydro-8H-pyrazino[1′,2′:4,5]pyrazino[2,3-c]pyridazin-8-yl)pyrrolidin-1-yl)-1-oxopropan-2-yl)oxy)isoxazol-5-yl)-3-methylbutanoyl)-N-((S)-1-(4-(4-methylthiazol-5-yl)phenyl)ethyl)pyrrolidine-2-carboxamide]
DC50 (SMARCA2 [4]): < 100 nM | DC50 (SMARCA4 [5]): 100 to 1000 nM
